The target in one assay is KDR (VEGFR2) (Homo sapiens (Human), UniProt P35968). The assay can be described thus: Kinase inhibition, Mobility Shift Assay (VEGFR2). The class given is biochemical. The protocol:
(§1) This assay directly monitored the ability of compounds to inhibit kinase phosphorylation by measuring non-phosphorylated and phosphorylated substrates in kinase reactions by using Mobility Shift Assays/IMAP™ analysis.
(§2) Add the kinase and DTT to 1× kinase buffer to form a 2.5× kinase solution; transfer 10 μL of 2.5× kinase solution to a 384-well reaction plate and add 1× kinase buffer to negative control wells. Incubate the plate for 10 min at room temperature; add FAM-labeled peptides, MgCl2, ATP and other reagents to 1× kinase buffer to form a 2.5× substrate solution; transfer 10 μL of the above 2.5× substrate solution to the 384-well reaction plate; incubate the plate at 28° C. for different times, and add 25 μL of stop solution to the 384-well reaction plate to stop the reaction. Read the conversion ratio data on CaliperEZ Reader II. Convert conversion rates into inhibition ratio data.
(§3) “Min” indicates the readout of the control well without the addition of kinase; and “Max” indicates the readout of the control well with the addition of DMSO. Fit IC50 values with XLFit excel add-in version 5.4.0.8.
(§4) X indicates the log value of compound concentration, and Y indicates the inhibition ratio (% inhibition).

For another assay, the target named is EGFR (Homo sapiens (Human), UniProt P00533). The assay can be described thus: Kinase inhibition, Mobility Shift Assay (EGFR). The class given is biochemical. As for the experimental part: as §1, §2, §3, §4

Usually IC50 stands for the concentration that inhibits the measured activity by half.

Sequence of KDR (VEGFR2) (P35968 790-1356): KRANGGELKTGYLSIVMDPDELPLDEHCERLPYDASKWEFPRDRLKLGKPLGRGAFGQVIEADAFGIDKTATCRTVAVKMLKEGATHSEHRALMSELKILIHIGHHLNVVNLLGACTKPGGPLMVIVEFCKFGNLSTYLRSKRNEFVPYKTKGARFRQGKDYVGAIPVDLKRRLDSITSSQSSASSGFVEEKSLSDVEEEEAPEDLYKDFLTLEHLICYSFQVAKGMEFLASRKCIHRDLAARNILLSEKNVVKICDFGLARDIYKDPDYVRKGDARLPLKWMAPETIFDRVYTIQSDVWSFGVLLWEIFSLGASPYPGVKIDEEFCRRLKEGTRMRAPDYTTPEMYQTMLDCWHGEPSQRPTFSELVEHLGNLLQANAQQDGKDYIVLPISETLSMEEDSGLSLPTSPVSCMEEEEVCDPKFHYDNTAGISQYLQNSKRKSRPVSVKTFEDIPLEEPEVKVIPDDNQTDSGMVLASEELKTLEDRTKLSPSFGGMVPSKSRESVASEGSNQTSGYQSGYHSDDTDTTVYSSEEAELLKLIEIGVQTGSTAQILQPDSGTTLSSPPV
Sequence of EGFR (P00533 25-1210): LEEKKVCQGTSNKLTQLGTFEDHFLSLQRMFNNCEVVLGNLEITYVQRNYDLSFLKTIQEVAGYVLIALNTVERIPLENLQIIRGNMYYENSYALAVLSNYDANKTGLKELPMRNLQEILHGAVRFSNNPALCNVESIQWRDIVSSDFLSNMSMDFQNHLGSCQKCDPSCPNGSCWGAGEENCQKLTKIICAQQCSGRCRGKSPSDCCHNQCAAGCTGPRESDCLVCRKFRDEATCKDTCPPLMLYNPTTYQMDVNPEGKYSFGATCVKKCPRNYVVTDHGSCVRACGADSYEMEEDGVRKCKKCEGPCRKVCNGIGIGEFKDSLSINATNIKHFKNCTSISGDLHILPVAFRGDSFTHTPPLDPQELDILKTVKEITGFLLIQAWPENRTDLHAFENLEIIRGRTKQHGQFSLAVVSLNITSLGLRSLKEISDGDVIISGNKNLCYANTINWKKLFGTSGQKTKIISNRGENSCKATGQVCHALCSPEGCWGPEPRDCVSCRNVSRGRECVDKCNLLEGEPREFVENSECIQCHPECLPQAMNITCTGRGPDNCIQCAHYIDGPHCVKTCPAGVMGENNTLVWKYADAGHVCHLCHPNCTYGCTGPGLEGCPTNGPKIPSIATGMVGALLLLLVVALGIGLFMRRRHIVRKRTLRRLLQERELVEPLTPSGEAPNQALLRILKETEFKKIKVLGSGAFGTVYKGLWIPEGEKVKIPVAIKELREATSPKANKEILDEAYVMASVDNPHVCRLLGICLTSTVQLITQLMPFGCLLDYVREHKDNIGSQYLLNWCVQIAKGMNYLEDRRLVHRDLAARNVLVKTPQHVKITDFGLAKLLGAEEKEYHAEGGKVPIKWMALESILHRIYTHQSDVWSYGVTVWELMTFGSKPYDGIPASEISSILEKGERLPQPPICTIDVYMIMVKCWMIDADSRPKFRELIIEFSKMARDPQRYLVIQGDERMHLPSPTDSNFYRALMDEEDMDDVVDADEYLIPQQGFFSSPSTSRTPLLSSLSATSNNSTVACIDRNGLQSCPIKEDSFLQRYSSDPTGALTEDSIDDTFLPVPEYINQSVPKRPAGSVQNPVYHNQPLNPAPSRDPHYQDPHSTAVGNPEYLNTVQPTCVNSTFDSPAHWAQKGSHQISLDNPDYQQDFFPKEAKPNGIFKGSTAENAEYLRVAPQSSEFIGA

Take `O=C(NC1CC1)c1cc(F)ccc1Sc1ccc2c(/C=C/c3cnn(CCCN4CCCC4)c3)n[nH]c2c1` [Compound I-46, N-cyclopropyl-5-fluoro-2-({3-[(E)-2-{1-[3-(pyrrolidin-1-yl)propyl]-1H-pyrazol-4-yl}vinyl]-1H-indazol-6-yl}thio)benzamide]: the IC50 on KDR (VEGFR2) is ≤ 1 nM; at EGFR, 6000 to 60000 nM.

As for `O=C(NC1CC1)c1ccccc1Sc1ccc2c(/C=C/c3ccn(CCN4CCCC4)n3)n[nH]c2c1` [Compound I-60, N-cyclopropyl-2-({3-[(E)-2-{1-[2-(pyrrolidin-1-yl)ethyl]-1H-pyrazol-3-yl}vinyl]-1H-indazol-6-yl}thio)benzamide], the figures for the IC50 at KDR (VEGFR2) and at EGFR were 1 to 10 nM and 600 to 6000 nM, respectively.

For `O=C(NC1CC1)c1cccc(F)c1Sc1ccc2c(/C=C/c3ccn(CCN4CCCC4)n3)n[nH]c2c1` [Compound I-69], the half-maximal inhibitory concentration (IC50) on KDR (VEGFR2) lay in the range of 10 to 100 nM; on EGFR, 6000 to 60000 nM.

Regarding `CNC(=O)c1ccccc1Sc1ccc2c(/C=C/c3ccc(CN4CCCC4)cn3)n[nH]c2c1` [Compound I-74, N-methyl-2-({3-[(E)-2-{5-[(pyrrolidin-1-yl)methyl]pyridin-2-yl}vinyl]-1H-indazol-6-yl}thio)benzamide], the figures for the IC50 on KDR (VEGFR2) and at EGFR were 1 to 10 nM and 6000 to 60000 nM, respectively.

On to `CCNC(=O)c1cccc(F)c1Sc1ccc2c(/C=C/c3ccc(CN4CCCC4)cn3)n[nH]c2c1` [Compound I-75, N-ethyl-3-fluoro-2-({3-[(E)-2-{5-[(pyrrolidin-1-yl)methyl]pyridin-2-yl}vinyl]-1H-indazol-6-yl}thio)benzamide], for which the IC50 at KDR (VEGFR2) is 1 to 10 nM; at EGFR, 6000 to 60000 nM.

On to `O=C(NC1CC1)c1ccccc1Oc1ccc2c(/C=C/c3ccc(CN4CCCC4)cn3)n[nH]c2c1` [Compound I-81, N-cyclopropyl-2-({3-[(E)-2-{5-[(pyrrolidin-1-yl)methyl]pyridin-2-yl}vinyl]-1H-indazol-6-yl}oxy)benzamide], for which the figures for the 50% inhibitory concentration (IC50) at KDR (VEGFR2) and at EGFR were 10 to 100 nM and 6000 to 60000 nM, respectively.

On to `CCNC(=O)c1ccc(Sc2ccc3c(/C=C/c4ccc(CN(CC)CC)cn4)n[nH]c3c2)cc1F` [Compound I-87, 4-({3-[(E)-2-{5-[(diethylamino)methyl]pyridin-2-yl}vinyl]-1H-indazol-6-yl}thio)-N-ethyl-2-fluorobenzamide], for which the values for the IC50 at KDR (VEGFR2) and on EGFR were > 100 nM and > 60000 nM, respectively.

Turning to `CCN(CC)Cc1ccc(/C=C/c2n[nH]c3cc(Sc4cc(F)ccc4C(=O)NC)ccc23)nc1` [Compound I-92, 2-({3-[(E)-2-{5-[(diethylamino)methyl]pyridin-2-yl}vinyl]-1H-indazol-6-yl}thio)-4-fluoro-N-methylbenzamide], the IC50 at KDR (VEGFR2) was in the range of 1 to 10 nM; on EGFR, 6000 to 60000 nM.

With `CNC(=O)c1cc(F)ccc1Sc1ccc2c(/C=C/c3ccc(CN4CCCC4)cn3)n[nH]c2c1` [Compound I-95, 5-fluoro-N-methyl-2-({3-[(E)-2-{5-[(pyrrolidin-1-yl)methyl]pyridin-2-yl}vinyl]-1H-indazol-6-yl}thio)benzamide], the IC50 at KDR (VEGFR2) was in the range of 1 to 10 nM; on EGFR, 6000 to 60000 nM.

For `CCNC(=O)c1cccc(F)c1Sc1ccc2c(/C=C/c3cnn(CCCN4CCCC4)c3)n[nH]c2c1` [Compound I-102], the IC50 on KDR (VEGFR2) fell in the range of 10 to 100 nM; on EGFR it was 6000 to 60000 nM.

Consider `CCNC(=O)c1ccc(F)cc1Sc1ccc2c(/C=C/c3cnn(CCCN4CCCC4)c3)n[nH]c2c1` [Compound I-103, N-ethyl-4-fluoro-2-({3-[(E)-2-{1-[3-(pyrrolidin-1-yl)propyl]-1H-pyrazol-4-yl}vinyl]-1H-indazol-6-yl}thio)benzamide], for which the concentration for half-maximal inhibition (IC50) on KDR (VEGFR2) is ≤ 1 nM; on EGFR, 6000 to 60000 nM.

With `CCN(CC)CCc1ccc(/C=C/c2n[nH]c3cc(Sc4cc(F)ccc4C(=O)NC4CC4)ccc23)nc1` [Compound I-108, N-cyclopropyl-2-({3-[(E)-2-{5-[2-(diethylamino)ethyl]pyridin-2-yl}vinyl]-1H-indazol-6-yl}thio)-4-fluorobenzamide], the values for the IC50 at KDR (VEGFR2) and at EGFR were ≤ 1 nM and 6000 to 60000 nM, respectively.

With `CCNC(=O)c1cccc(F)c1Sc1ccc2c(/C=C/c3ccc(CN(CC)CC)cn3)n[nH]c2c1` [Compound I-111, 2-({3-[(E)-2-{5-[(diethylamino)methyl]pyridin-2-yl}vinyl]-1H-indazol-6-yl}thio)-N-ethyl-3-fluorobenzamide], the values for the IC50 at KDR (VEGFR2) and on EGFR were 1 to 10 nM and 6000 to 60000 nM, respectively.

As for `O=C(NC1CC1)c1cccc(F)c1Sc1ccc2c(/C=C/c3cc(OCCN4CCCC4)ccn3)n[nH]c2c1` [Compound I-112, N-cyclopropyl-3-fluoro-2-({3-[(E)-2-{4-[2-(pyrrolidin-1-yl)ethoxy]pyridin-2-yl}vinyl]-1H-indazol-6-yl}thio)benzamide], the IC50 on KDR (VEGFR2) lay in the range of 10 to 100 nM; on EGFR, 6000 to 60000 nM.

Consider `CCNC(=O)c1cccc(F)c1Sc1ccc2c(/C=C/c3cc(CN4CCCC4)ccn3)n[nH]c2c1` [Compound I-114, N-ethyl-3-fluoro-2-({3-[(E)-2-{4-[(pyrrolidin-1-yl)methyl]pyridin-2-yl}vinyl]-1H-indazol-6-yl}thio)benzamide], for which the IC50 was > 100 nM on KDR (VEGFR2) and > 60000 nM at EGFR.

Regarding `CCNC(=O)c1cc(F)ccc1Sc1ccc2c(/C=C/c3cc(CCCN4CCCC4)ccn3)n[nH]c2c1` [Compound I-122, N-ethyl-5-fluoro-2-({3-[(E)-2-{4-[3-(pyrrolidin-1-yl)propyl]pyridin-2-yl}vinyl]-1H-indazol-6-yl}thio)benzamide], the half-maximal inhibitory concentration (IC50) at KDR (VEGFR2) was 1 to 10 nM; at EGFR, > 60000 nM.

Consider `O=C(NC1CC1)c1cccc(F)c1Sc1ccc2c(/C=C/c3cc(CCCN4CCCC4)ccn3)n[nH]c2c1` [Compound I-123], for which the IC50 at KDR (VEGFR2) is 10 to 100 nM; at EGFR, > 60000 nM.

With `O=C(NC1CC1)c1cccc(F)c1Sc1ccc2c(/C=C/c3cccc(CCCN4CCCC4)n3)n[nH]c2c1` [Compound I-124], the IC50 on KDR (VEGFR2) fell in the range of 10 to 100 nM; at EGFR, 6000 to 60000 nM.

Regarding `O=C(NC1CC1)c1cccc(F)c1Sc1ccc2c(/C=C/c3cccc(CCN4CCCC4)n3)n[nH]c2c1` [Compound I-128, N-cyclopropyl-3-fluoro-2-({3-[(E)-2-{6-[2-(pyrrolidin-1-yl)ethyl]pyridin-2-yl}vinyl]-1H-indazol-6-yl}thio)benzamide], the figures for the IC50 at KDR (VEGFR2) and on EGFR were 10 to 100 nM and > 60000 nM, respectively.

Consider `CCNC(=O)c1cccc(F)c1Sc1ccc2c(/C=C/c3cccc(CCN4CCCC4)n3)n[nH]c2c1` [Compound I-129, N-ethyl-3-fluoro-2-({3-[(E)-2-{6-[2-(pyrrolidin-1-yl)ethyl]pyridin-2-yl}vinyl]-1H-indazol-6-yl}thio)benzamide], for which the 50% inhibitory concentration (IC50) is 10 to 100 nM at KDR (VEGFR2) and > 60000 nM at EGFR.

`O=C(NC1CC1)c1cc(F)ccc1Sc1ccc2c(/C=C/c3cccc(CCCN4CCCC4)n3)n[nH]c2c1` [Compound I-132, N-cyclopropyl-5-fluoro-2-({3-[(E)-2-{6-[3-(pyrrolidin-1-yl)propyl]pyridin-2-yl}vinyl]-1H-indazol-6-yl}thio)benzamide]: the IC50 is 1 to 10 nM at KDR (VEGFR2) and 6000 to 60000 nM at EGFR.

On to `O=C(NC1CC1)c1ccccc1Sc1ccc2c(/C=C/c3cc(CCN4CCCC4)ccn3)n[nH]c2c1` [Compound I-133, N-cyclopropyl-2-({3-[(E)-2-{4-[2-(pyrrolidin-1-yl)ethyl]pyridin-2-yl}vinyl]-1H-indazol-6-yl}thio)benzamide], for which the concentration for half-maximal inhibition (IC50) at KDR (VEGFR2) is 1 to 10 nM; on EGFR it was > 60000 nM.

Values taken from patent US20260049071A1, “PROTEIN TYROSINE KINASE INHIBITOR AND MEDICAL USE THEREOF” (BEYANG THERAPEUTICS CO., LTD., priority 2022, published 2026).
